From US9409884B2 (Rigel Pharmaceuticals, Inc., priority 2012, dated 2016)
pEC50: −log10 of the molar value.

Target: AMPK
Assay: AMPK activation, enzyme-linked immunosorbent assay
Format: biochemical
Settings: Table 14, compounds of Table 7
Outline: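 AMPK activation by test compounds was measured by enzyme-linked immunosorbent assay.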

Structure (SMILES)	pEC50
CC(=O)c1ccc(Oc2ccc(NC(=O)c3ccc(C(=O)N4CCC(C(=O)c5ccc(OC(F)(F)F)cc5)CC4)nc3)cn2)cc1 [Compound 7-70, N-(6-(4-acetylphenoxy)pyridin-3-yl)-6-(4-(4-(trifluoromethoxy)benzoyl)piperidine-1-carbonyl) nicotinamide]	> 6.00
N#Cc1ccc(CN2CCC(NC(=O)c3ccc(C(=O)N4CCC(C(=O)c5ccc(OC(F)(F)F)cc5)CC4)nc3)[C@H](F)C2)cc1 (stereo partly drawn) [Compound 7-71, N-((3,4-trans)-1-(4-cyanobenzyl)-3-fluoropiperidin-4-yl)-6-(4-(4-(trifluoromethoxy)benzoyl)piperidine-1-carbonyl) nicotinamide]	> 6.00
N#Cc1ccc(CN2CCC(NC(=O)c3ccc(C(=O)N4CCC(C(=O)c5ccc(N6CCCC6)cc5)CC4)nc3)[C@H](F)C2)cc1 (stereo partly drawn) [Compound 7-72, N-((3,4-trans)-1-(4-cyanobenzyl)-3-fluoropiperidin-4-yl)-6-(4-(4-(pyrrolidin-1-yl)benzoyl)piperidine-1-carbonyl)nicotinamide]	> 6.00
N#Cc1ccc(CN2CCC(NC(=O)c3ccc(C(=O)N4CCC(Oc5ccc(S(=O)(=O)C6CC6)cc5)CC4)nc3)[C@H](F)C2)cc1 (stereo partly drawn) [Compound 7-73, N-((3,4-trans)-1-(4-cyanobenzyl)-3-fluoropiperidin-4-yl)-6-(4-(4-(cyclopropylsulfonyl)phenoxy)piperidine-1-carbonyl)nicotinamide]	5.00 to 6.00
CC(=O)c1ccc(OC2CCN(C(=O)c3ccc(C(=O)NC4CCN(Cc5ccc(C#N)cc5)C[C@H]4F)cn3)CC2)cc1 (stereo partly drawn) [Compound 7-74, 6-(4-(4-acetylphenoxy)piperidine-1-carbonyl)-N-((3,4-trans)-1-(4-cyanobenzyl)-3-fluoropiperidin-4-yl)nicotinamide]	> 6.00
N#Cc1ccc(CN2CCC(NC(=O)c3ccc(C(=O)N4CCC(C(=O)c5ccc(N6CCOCC6)cc5)CC4)nc3)[C@H](F)C2)cc1 (stereo partly drawn) [Compound 7-75, N-((3,4-trans)-1-(4-cyanobenzyl)-3-fluoropiperidin-4-yl)-6-(4-(4-morpholinobenzoyl)piperidine-l-carbonyl)nicotinamide]	> 6.00
CC(=O)c1ccc(Oc2ccc(NC(=O)c3ccc(C(=O)N4CCN(Cc5ccc(S(C)(=O)=O)cc5)CC4)nc3)cn2)cc1 [Compound 7-76, N-(6-(4-acetylphenoxy)pyridin-3-yl)-6-(4-(4-(methylsulfonyl)benzyl)piperazine-1-carbonyl) nicotinamide]	5.00 to 6.00
CS(=O)(=O)c1ccc(N2CCN(c3ccc(C(=O)NC4CCN(Cc5ccc(C#N)cc5)CC4)cn3)CC2)cc1 [Compound 7-77, N-(1-(4-cyanobenzyl)piperidin-4-yl)-6-(4-(4-(methylsulfonyl)phenyl)piperazin-1-yl)nicotinamide]	> 6.00
COc1ccc(C(=O)C2CCN(C(=O)c3ccc(C(=O)NC4CCN(Cc5ccc(C#N)cc5)C[C@@H]4C)cn3)CC2)cc1 (stereo partly drawn) [Compound 7-78, N-((3,4-trans)-1-(4-cyanobenzyl)-3-methylpiperidin-4-yl)-6-(4-(4-methoxybenzoyl)piperidine-1-carbonyl)nicotinamide]	> 6.00
CS(=O)(=O)c1ccc(CN2CCN(c3ccc(C(=O)NC4CCN(Cc5ccc(C#N)cc5)CC4)cn3)CC2)cc1 [Compound 7-79, N-(1-(4-cyanobenzyl)piperidin-4-yl)-6-(4-(4-(methylsulfonyl)benzyl)piperazin-1-yl)nicotinamide]	4.70 to 5.00
CS(=O)(=O)c1ccc(OC2CCN(c3ccc(C(=O)NC4CCN(Cc5ccc(C#N)cc5)CC4)cn3)CC2)cc1 [Compound 7-80, N-(1-(4-cyanobenzyl)piperidin-4-yl)-6-(4-(4-(methylsulfonyl)phenoxy)piperidin-1-yl)nicotinamide]	> 6.00
N#Cc1ccc(CN2CCC(NC(=O)c3ccc(N4CCN(c5ccc(C(=O)C6CC6)cc5)CC4)nc3)CC2)cc1 [Compound 7-81, N-(1-(4-cyanobenzyl)piperidin-4-yl)-6-(4-(4-(cyclopropanecarbonyl)phenyl)piperazin-1-yl)nicotinamide]	> 6.00
